`CC1=C(c2ccccc2)CCN(C)C1` showed a logP of 3.18. For `CN1CC=C(c2ccncc2)CC1`, the logP was 1.25. Compound `C1=C(c2ccccc2)CCN(CCc2ccccc2)C1` has a logP of 3.98. In the case of `Cc1ccccc1C1=CCN(C)CC1`, the logP is reported as 3.1. For `CN1CC=C(c2ccc(N)cc2)CC1`, the logP was 1.48. In the case of `CN1CC=C(c2ccc(Cl)cc2)CC1`, the logP is reported as 3.32. `CCN1CC=C(c2ccccc2)CC1` showed a logP of 3.18. `C1=C(c2ccccc2)CCNC1` gave a logP of 1.99. For `Fc1ccc(C2=CCNCC2)cc1`, the logP was 2.37. `OCCN1CC=C(c2ccccc2)CC1` showed a logP of 2. `CN1CC=C(c2cccs2)CC1` showed a logP of 2.51. Compound `CN1CC=C(c2cccc(N)c2)CC1` has a logP of 1.47.

From the SangsterLogP compilation
